Laboratory results reported in patent US20090311237A1, “Combination therapy using a soluble hyaluronidase and a bisphosphonate” (priority 2008, published 2009).

Assay: Phase 1 Stage 1 clinical pharmacokinetics of SC ZA co-administered with rHuPH20
Type: in vivo, human
Procedure: A pharmacokinetic study of zoledronic acid (ZA) co-administered with rHuPH20 in human subjects was conducted. The primary objective of the study was to determine the bioavailability of zoledronic acid dosed via subcutaneous (SC) co-administration with human recombinant hyaluronidase PH20 (rHuPH20). […] The patients were administered the prescribed dosage formulations as follows: Cohorts 1-5 were administered a single subcutaneous infusion in a dosage volume of 100 ml at a rate of 3 mL/min. […] The dosing solution is administered via needle or catheter into the SC space of the left anterior thigh (midway between the anterior iliac crest and the cephalad border of the patella). For cohorts 1-5, the dosing solutions were administered by a controlled rate infusion pump at approximately 3 mL/minute. […] The dosing solutions were administered by syringe push bolus injection. […] Serum concentration of ZA was determined using a qualified LC-MS-MS assay after derivatization with diazomethane (Zhu, L S et al. (2006) Rapid Commun. […] The assay range was from 2.0 to 400 ng/mL with a lower limit of quantitation (LLOQ) at 2.0 ng/mL. […] Non-compartmental analysis was used for derivation of primary and secondary pharmacokinetic (PK) parameters. […] Summary statistics (mean, standard deviation, and median) were calculated using JMP or Microsoft Excel.

[1] = Subj 1, ZA […] SC, inf 0.554 hr, PH20 23928 U
[2] = Subj 8, ZA […] SC, inf 0.531 hr, PH20 22944 U
[3] = Subj 11, ZA […] SC, inf 0.554 hr, PH20 23928 U
[4] = Subj 16, ZA […] SC, inf 0.553 hr, PH20 23904 U
[5] = Subj 18, ZA […] SC, inf […], PH20 23304 U
[6] = Subj 21, ZA […] SC, inf 0.556 hr, PH20 24000 U
[7] = Subj 25, ZA […] SC, inf 0.549 hr, PH20 23736 U
[8] = Subj 26, ZA […] SC, inf […], PH20 23088 U
[9] = Subj 27, ZA 0.0196 mg/kg SC, inf […], PH20 23976 U
[10] = Subj 29, ZA 0.0339 mg/kg SC, inf 0.556 hr, PH20 24000 U
[11] = Subj 31, ZA […] SC, inf 0.554 hr, PH20 23952 U
[12] = Subj 32, ZA […] SC, inf 0.556 hr, PH20 24000 U
[13] = Subj 37, ZA 0.0791 mg/kg SC, inf 0.556 hr, PH20 24000 U
[14] = Subj 38, ZA 0.0706 mg/kg SC, inf 0.554 hr, PH20 23952 U
[15] = Subj 39, ZA 0.0691 mg/kg SC, inf 0.552 hr, PH20 23856 U
[16] = Subj 41, ZA 0.0653 mg/kg SC, inf […], PH20 12216 U
[17] = Subj 46, ZA 0.0877 mg/kg SC, inf 0.276 hr, PH20 12000 U
[18] = Subj 51, ZA […] SC, inf 0.251 hr, PH20 6024 U

Structure (SMILES): O=P(O)(O)C(O)(Cn1ccnc1)P(=O)(O)O [ZA, 1-hydroxy-2-(1H-imidazol-1-yl)ethylidene-1,1-bisphosphonic acid]
- AUC (0-inf)/D [1]: 0.006638 kg·h/mL
- CL [1]: 2.511 mL/min/kg
- Cmax/D [1]: 0.001722 kg/mL
- Vss [1]: 0.44318 L/kg
- Vz [1]: 0.40861 L/kg
- AUC (0-inf)/D [2]: 0.01019 kg·h/mL
- CL [2]: 1.635 mL/min/kg
- Cmax/D [2]: 0.001772 kg/mL
- Vss [2]: 0.45621 L/kg
- Vz [2]: 0.43706 L/kg
- AUC (0-inf)/D [3]: 0.009322 kg·h/mL
- CL [3]: 1.7878 mL/min/kg
- Cmax/D [3]: 0.002073 kg/mL
- Vss [3]: 0.36447 L/kg
- Vz [3]: 0.33982 L/kg
- AUC (0-inf)/D [4]: 0.007097 kg·h/mL
- CL [4]: 2.3485 mL/min/kg
- Cmax/D [4]: 0.001739 kg/mL
- Vss [4]: 0.44893 L/kg
- Vz [4]: 0.44919 L/kg
- AUC (0-inf)/D [5]: 0.00801 kg·h/mL
- CL [5]: 2.0807 mL/min/kg
- Cmax/D [5]: 0.002012 kg/mL
- Vss [5]: 0.40254 L/kg
- Vz [5]: 0.40424 L/kg
- AUC (0-inf)/D [6]: 0.009748 kg·h/mL
- CL [6]: 1.7097 mL/min/kg
- Cmax/D [6]: 0.002152 kg/mL
- Vss [6]: 0.34316 L/kg
- Vz [6]: 0.33661 L/kg
- AUC (0-inf)/D [7]: 0.006861 kg·h/mL
- CL [7]: 2.4293 mL/min/kg
- Cmax/D [7]: 0.00176 kg/mL
- Vss [7]: 0.77861 L/kg
- Vz [7]: 1.64423 L/kg
- AUC (0-inf)/D [8]: 0.01198 kg·h/mL
- CL [8]: 1.391 mL/min/kg
- Cmax/D [8]: 0.002609 kg/mL
- Vss [8]: 0.42621 L/kg
- Vz [8]: 1.01736 L/kg
- AUC (0-inf)/D [9]: 0.006142 kg·h/mL
- CL [9]: 2.7135 mL/min/kg
- Cmax/D [9]: 0.001276 kg/mL
- Vss [9]: 0.91422 L/kg
- Vz [9]: 1.53448 L/kg
- AUC (0-inf)/D [10]: 0.007095 kg·h/mL
- CL [10]: 2.349 mL/min/kg
- Cmax/D [10]: 0.001853 kg/mL
- Vss [10]: 0.66499 L/kg
- Vz [10]: 1.76877 L/kg
- AUC (0-inf)/D [11]: 0.007665 kg·h/mL
- CL [11]: 2.1745 mL/min/kg
- Cmax/D [11]: 0.001699 kg/mL
- Vss [11]: 0.67025 L/kg
- Vz [11]: 1.66854 L/kg
- AUC (0-inf)/D [12]: 0.008441 kg·h/mL
- CL [12]: 1.9745 mL/min/kg
- Cmax/D [12]: 0.001677 kg/mL
- Vss [12]: 1.2493 L/kg
- Vz [12]: 3.76429 L/kg
- AUC (0-inf)/D [13]: 0.007838 kg·h/mL
- CL [13]: 2.1265 mL/min/kg
- Cmax/D [13]: 0.001656 kg/mL
- Vss [13]: 1.39565 L/kg
- Vz [13]: 4.2995 L/kg
- AUC (0-inf)/D [14]: 0.009027 kg·h/mL
- CL [14]: 1.8463 mL/min/kg
- Cmax/D [14]: 0.001657 kg/mL
- Vss [14]: 1.52947 L/kg
- Vz [14]: 3.90822 L/kg
- AUC (0-inf)/D [15]: 0.01052 kg·h/mL
- CL [15]: 1.584 mL/min/kg
- Cmax/D [15]: 0.002127 kg/mL
- Vss [15]: 1.20501 L/kg
- Vz [15]: 3.57183 L/kg
- AUC (0-inf)/D [16]: 0.01128 kg·h/mL
- CL [16]: 1.478 mL/min/kg
- Cmax/D [16]: 0.002159 kg/mL
- Vss [16]: 2.37143 L/kg
- Vz [16]: 5.48166 L/kg
- AUC (0-inf)/D [17]: 0.008516 kg·h/mL
- CL [17]: 1.957 mL/min/kg
- Cmax/D [17]: 0.002429 kg/mL
- Vss [17]: 1.09639 L/kg
- Vz [17]: 3.51646 L/kg
- AUC (0-inf)/D [18]: 0.009685 kg·h/mL
- CL [18]: 1.721 mL/min/kg
- Cmax/D [18]: 0.001817 kg/mL
